Source: PubChem BioAssay (NCI)
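Exposure lasted 48 hours, with cells grown in 96-well plates and compounds tested at five concentrations. The concentration for 50% growth inhibition is given as GI50. The concentration for full growth arrest is given as TGI.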

Legend:
Assay in all cases: growth of human tumour cells (NCI), 48 h; in the data active means GI50 below about 0.43 µM; inactive means the rest
UACC-257 melanoma = test system: UACC-257 melanoma
K-562 leukemia = test system: K-562 leukemia
EKVX NSCLC = test system: EKVX NSCLC
SNB-75 CNS = test system: SNB-75 CNS
IGROV1 ovarian = test system: IGROV1 ovarian
MDA-MB-435 = test system: MDA-MB-435
M14 melanoma = test system: M14 melanoma
SK-MEL-28 melanoma = test system: SK-MEL-28 melanoma
SN12C renal = test system: SN12C renal
HOP-92 NSCLC = test system: HOP-92 NSCLC
NCI/ADR-RES ovarian = test system: NCI/ADR-RES ovarian
NCI-H226 lung = test system: NCI-H226 lung
OVCAR-5 ovarian = test system: OVCAR-5 ovarian
SK-MEL-5 melanoma = test system: SK-MEL-5 melanoma
SF-268 CNS = test system: SF-268 CNS
RXF 393 renal = test system: RXF 393 renal
NCI-H460 lung = test system: NCI-H460 lung
HL-60(TB) leukemia = test system: HL-60(TB) leukemia
SF-295 CNS = test system: SF-295 CNS
LOX IMVI melanoma = test system: LOX IMVI melanoma
U251 CNS = test system: U251 CNS
SNB-19 CNS = test system: SNB-19 CNS
UACC-62 melanoma = test system: UACC-62 melanoma
DU-145 prostate = test system: DU-145 prostate
MDA-MB-231 breast = test system: MDA-MB-231 breast
PC-3 prostate = test system: PC-3 prostate
SK-OV-3 ovarian = test system: SK-OV-3 ovarian
SR leukemia = test system: SR leukemia
HCT-116 colon = test system: HCT-116 colon
HCC-2998 colon = test system: HCC-2998 colon
SW-620 colon = test system: SW-620 colon
OVCAR-3 ovarian = test system: OVCAR-3 ovarian
OVCAR-4 ovarian = test system: OVCAR-4 ovarian
TK-10 renal = test system: TK-10 renal
HT29 colon = test system: HT29 colon
HOP-62 NSCLC = test system: HOP-62 NSCLC
A498 renal = test system: A498 renal
786-0 renal = test system: 786-0 renal
ACHN renal = test system: ACHN renal
CCRF-CEM leukemia = test system: CCRF-CEM leukemia
UO-31 renal = test system: UO-31 renal
HCT-15 colon = test system: HCT-15 colon
NCI-H23 lung = test system: NCI-H23 lung
OVCAR-8 ovarian = test system: OVCAR-8 ovarian
NCI-H522 lung = test system: NCI-H522 lung
T-47D breast = test system: T-47D breast
A549 NSCLC = test system: A549 NSCLC
SK-MEL-2 melanoma = test system: SK-MEL-2 melanoma
COLO 205 colon = test system: COLO 205 colon
MALME-3M melanoma = test system: MALME-3M melanoma
RPMI-8226 leukemia = test system: RPMI-8226 leukemia
BT-549 breast = test system: BT-549 breast
MCF7 breast = test system: MCF7 breast
CAKI-1 renal = test system: CAKI-1 renal
HS 578T breast = test system: HS 578T breast
SF-539 CNS = test system: SF-539 CNS
KM12 colon = test system: KM12 colon

O=C(CSCC(=O)N/N=C/c1ccccc1O)N/N=C\c1ccccc1O
25.2 µM: TGI (MALME-3M melanoma)
25 µM: TGI (ACHN renal)
23 µM: TGI (SF-539 CNS)
34.4 µM: TGI (HCC-2998 colon)
5.11 µM: TGI (HL-60(TB) leukemia)
6.59 µM: TGI (786-0 renal)
37.3 µM: TGI (UO-31 renal)
7.13 µM: TGI (UACC-62 melanoma)
56.3 µM: TGI (BT-549 breast)
> 100 µM: TGI (K-562 leukemia) | TGI (EKVX NSCLC) | TGI (SNB-75 CNS) | TGI (IGROV1 ovarian) | TGI (MDA-MB-435) | TGI (SK-MEL-28 melanoma) | TGI (SN12C renal) | TGI (HOP-92 NSCLC) | TGI (NCI/ADR-RES ovarian) | TGI (NCI-H226 lung) | TGI (OVCAR-5 ovarian) | TGI (SK-MEL-5 melanoma) | TGI (SF-268 CNS) | TGI (RXF 393 renal) | TGI (NCI-H460 lung) | TGI (SF-295 CNS) | TGI (LOX IMVI melanoma) | TGI (U251 CNS) | TGI (SNB-19 CNS) | TGI (DU-145 prostate) | TGI (MDA-MB-231 breast) | TGI (PC-3 prostate) | TGI (SK-OV-3 ovarian) | TGI (SR leukemia) | TGI (HCT-116 colon) | TGI (SW-620 colon) | TGI (OVCAR-3 ovarian) | TGI (OVCAR-4 ovarian) | TGI (TK-10 renal) | TGI (HT29 colon) | TGI (HOP-62 NSCLC) | TGI (A498 renal) | TGI (CCRF-CEM leukemia) | TGI (HCT-15 colon) | TGI (NCI-H23 lung) | TGI (OVCAR-8 ovarian) | TGI (NCI-H522 lung) | TGI (T-47D breast) | TGI (A549 NSCLC) | TGI (SK-MEL-2 melanoma) | TGI (COLO 205 colon) | TGI (RPMI-8226 leukemia) | TGI (MCF7 breast) | TGI (HS 578T breast) | TGI (KM12 colon)
inactive: GI50 (UACC-257 melanoma) 3.09 µM | GI50 (K-562 leukemia) 2.39 µM | GI50 (EKVX NSCLC) 2.44 µM | GI50 (SNB-75 CNS) 67.7 µM | GI50 (IGROV1 ovarian) 1.91 µM | GI50 (MDA-MB-435) 3.44 µM | GI50 (M14 melanoma) 1.51 µM | GI50 (SK-MEL-28 melanoma) 8.05 µM | GI50 (SN12C renal) 2.46 µM | GI50 (HOP-92 NSCLC) 1.73 µM | GI50 (NCI/ADR-RES ovarian) 2.87 µM | GI50 (NCI-H226 lung) 3.43 µM | GI50 (OVCAR-5 ovarian) 5.11 µM | GI50 (SK-MEL-5 melanoma) 1.86 µM | GI50 (SF-268 CNS) 1.2 µM | GI50 (RXF 393 renal) 2.46 µM | GI50 (NCI-H460 lung) 2.27 µM | GI50 (HL-60(TB) leukemia) 1.49 µM | GI50 (SF-295 CNS) 1.78 µM | GI50 (LOX IMVI melanoma) 0.748 µM | GI50 (U251 CNS) 1.06 µM | GI50 (SNB-19 CNS) 2.95 µM | GI50 (UACC-62 melanoma) 1.61 µM | GI50 (DU-145 prostate) 1.92 µM | GI50 (MDA-MB-231 breast) 4.16 µM | GI50 (PC-3 prostate) 3.06 µM | GI50 (SK-OV-3 ovarian) 2.4 µM | GI50 (SR leukemia) 0.668 µM | GI50 (HCT-116 colon) 1.06 µM | GI50 (HCC-2998 colon) 1.61 µM | GI50 (SW-620 colon) 3.25 µM | GI50 (OVCAR-3 ovarian) 4.76 µM | GI50 (OVCAR-4 ovarian) 1.72 µM | GI50 (TK-10 renal) 1.83 µM | GI50 (HT29 colon) 5.64 µM | GI50 (HOP-62 NSCLC) 1.31 µM | GI50 (A498 renal) 14.3 µM | GI50 (786-0 renal) 1.95 µM | GI50 (ACHN renal) 0.877 µM | GI50 (CCRF-CEM leukemia) 0.433 µM | GI50 (UO-31 renal) 1.06 µM | GI50 (HCT-15 colon) 0.52 µM | GI50 (NCI-H23 lung) 3.33 µM | GI50 (OVCAR-8 ovarian) 1.92 µM | GI50 (NCI-H522 lung) 3.61 µM | GI50 (T-47D breast) 2.36 µM | GI50 (A549 NSCLC) 3.2 µM | GI50 (SK-MEL-2 melanoma) 5.35 µM | GI50 (COLO 205 colon) 2.19 µM | GI50 (MALME-3M melanoma) 2.29 µM | GI50 (RPMI-8226 leukemia) 3.49 µM | GI50 (BT-549 breast) 1.73 µM | GI50 (MCF7 breast) 5.85 µM | GI50 (CAKI-1 renal) 0.627 µM | GI50 (HS 578T breast) 26.7 µM | GI50 (SF-539 CNS) 2.1 µM | GI50 (KM12 colon) 2.42 µM
12.5 µM: TGI (M14 melanoma)
9.82 µM: TGI (CAKI-1 renal)
22.5 µM: TGI (UACC-257 melanoma)
